Laboratory results: patent US7981512B2, “Organic polymer-magnetic particles and process for producing same” (JSR Corporation, priority 2006, dated 2011)

Conditions: distilled water
Experimental: In the invention, the solubility in water at 25° C. of the monomer is determined by slowly adding the monomer in question to distilled water at 25° C. while stirring until the monomer separates from the water. The amount (% by mass) of the monomer in the solution immediately before separation is defined as the solubility.

| Structure (SMILES) | solubility in water at 25° C. |
| --- | --- |
| C=C(C)C(=O)OCCOC(=O)c1ccccc1C(=O)O [2-methacryloyloxyethyl phthalate] | less than 0.2 % by mass |
| C=C(C)C(=O)O [methacrylic acid] | 100 % by mass |
